Laboratory results taken from the supplement of paper PMC10307832.

Legend:
Assay in all cases: relative viability (nuclei count vs DMSO), 5 days (fraction); higher = more cells survive
A-427 = tested on: A-427
How it was run: (§1)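 One day after seeding in 1536-well plates, lung cancer cell lines were dosed by pin tool. Dosing was either single-drug or a fixed anchor-drug dose plus five library-drug doses (not always all listed) in √10 steps. After 5 days, nuclei were stained in one fix-and-stain step and counted on 4× images, and relative viability is the nuclei count of treated wells over that of vehicle wells, given as the median of duplicate plates.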

ABC-1 = tested on: ABC-1
How it was run: as §1

COR-L23 = tested on: COR-L23
How it was run: as §1

EMC-BAC-2 = tested on: EMC-BAC-2
How it was run: as §1

HARA = tested on: HARA
How it was run: as §1

HOP-62 = tested on: HOP-62
How it was run: as §1

LK-2 = tested on: LK-2
How it was run: as §1

LU99A = tested on: LU99A
How it was run: as §1

LXF-289 = tested on: LXF-289
How it was run: as §1

NCI-H1792 = tested on: NCI-H1792
How it was run: as §1

NCI-H1793 = tested on: NCI-H1793
How it was run: as §1

NCI-H1944 = tested on: NCI-H1944
How it was run: as §1

NCI-H1993 = tested on: NCI-H1993
How it was run: as §1

NCI-H2009 = tested on: NCI-H2009
How it was run: as §1

NCI-H2170 = tested on: NCI-H2170
How it was run: as §1

NCI-H2228 = tested on: NCI-H2228
How it was run: as §1

NCI-H3122 = tested on: NCI-H3122
How it was run: as §1

NCI-H596 = tested on: NCI-H596
How it was run: as §1

NCI-H727 = tested on: NCI-H727
How it was run: as §1

PC-3 [JPC-3] = tested on: PC-3 [JPC-3]
How it was run: as §1

SK-LU-1 = tested on: SK-LU-1
How it was run: as §1

SK-MES-1 = tested on: SK-MES-1
How it was run: as §1

SW 1573 = tested on: SW 1573
How it was run: as §1

SW 900 = tested on: SW 900
How it was run: as §1

## COc1cc(N2CCC(C(N)=O)CC2)ccc1Nc1nc(N)c(Cl)c(Nc2ccccc2S(=O)(=O)C(C)C)n1 [HG-5-88-01] + CCNC(=O)c1noc(-c2cc(C(C)C)c(O)cc2O)c1-c1ccc(CN2CCOCC2)cc1 [Luminespib] (partner 0.01 µM)
A-427; first compound 0.04 µM
  relative viability: 1.13
A-427; first compound 0.1265 µM
  relative viability: 0.916
A-427; first compound 0.4 µM
  relative viability: 0.901
A-427; first compound 1.265 µM
  relative viability: 0.769
A-427; first compound 4 µM
  relative viability: 0.754
ABC-1; first compound 0.04 µM
  relative viability: 0.406
ABC-1; first compound 0.1265 µM
  relative viability: 0.86
ABC-1; first compound 0.4 µM
  relative viability: 0.345
ABC-1; first compound 1.265 µM
  relative viability: 0.296
ABC-1; first compound 4 µM
  relative viability: 0.587
COR-L23; first compound 0.04 µM
  relative viability: 0.69
COR-L23; first compound 0.1265 µM
  relative viability: 0.575
COR-L23; first compound 0.4 µM
  relative viability: 0.589
COR-L23; first compound 1.265 µM
  relative viability: 0.614
COR-L23; first compound 4 µM
  relative viability: 0.557
EMC-BAC-2; first compound 0.04 µM
  relative viability: 1.09
EMC-BAC-2; first compound 0.1265 µM
  relative viability: 1.25
EMC-BAC-2; first compound 0.4 µM
  relative viability: 1.14
EMC-BAC-2; first compound 1.265 µM
  relative viability: 1.12
EMC-BAC-2; first compound 4 µM
  relative viability: 0.892
HARA; first compound 0.04 µM
  relative viability: 0.777
HARA; first compound 0.1265 µM
  relative viability: 0.813
HARA; first compound 0.4 µM
  relative viability: 0.565
HARA; first compound 1.265 µM
  relative viability: 0.5
HARA; first compound 4 µM
  relative viability: 0.421
HOP-62; first compound 0.04 µM
  relative viability: 0.889
HOP-62; first compound 0.1265 µM
  relative viability: 0.932
HOP-62; first compound 0.4 µM
  relative viability: 0.878
HOP-62; first compound 1.265 µM
  relative viability: 0.964
HOP-62; first compound 4 µM
  relative viability: 1.01
LK-2; first compound 0.04 µM
  relative viability: 0.192
LK-2; first compound 0.1265 µM
  relative viability: 0.241
LK-2; first compound 0.4 µM
  relative viability: 0.205
LK-2; first compound 1.265 µM
  relative viability: 0.183
LK-2; first compound 4 µM
  relative viability: 0.193
LU99A; first compound 0.04 µM
  relative viability: 0.214
LU99A; first compound 0.1265 µM
  relative viability: 0.217
LU99A; first compound 0.4 µM
  relative viability: 0.288
LU99A; first compound 1.265 µM
  relative viability: 0.275
LU99A; first compound 4 µM
  relative viability: 0.252
LXF-289; first compound 0.04 µM
  relative viability: 0.703
LXF-289; first compound 0.1265 µM
  relative viability: 0.733
LXF-289; first compound 0.4 µM
  relative viability: 0.698
LXF-289; first compound 1.265 µM
  relative viability: 0.721
LXF-289; first compound 4 µM
  relative viability: 0.897
NCI-H1792; first compound 0.04 µM
  relative viability: 0.442
NCI-H1792; first compound 0.1265 µM
  relative viability: 0.609
NCI-H1792; first compound 0.4 µM
  relative viability: 0.472
NCI-H1792; first compound 1.265 µM
  relative viability: 0.325
NCI-H1792; first compound 4 µM
  relative viability: 0.552
NCI-H1793; first compound 0.1265 µM
  relative viability: 0.168
NCI-H1793; first compound 0.4 µM
  relative viability: 0.198
NCI-H1793; first compound 4 µM
  relative viability: 0.272
NCI-H1944; first compound 0.04 µM
  relative viability: 0.808
NCI-H1944; first compound 0.1265 µM
  relative viability: 0.821
NCI-H1944; first compound 0.4 µM
  relative viability: 0.759
NCI-H1944; first compound 1.265 µM
  relative viability: 0.673
NCI-H1944; first compound 4 µM
  relative viability: 0.729
NCI-H1993; first compound 0.04 µM
  relative viability: 0.957
NCI-H1993; first compound 0.1265 µM
  relative viability: 0.826
NCI-H1993; first compound 0.4 µM
  relative viability: 0.83
NCI-H1993; first compound 1.265 µM
  relative viability: 0.648
NCI-H1993; first compound 4 µM
  relative viability: 0.578
NCI-H2009; first compound 0.04 µM
  relative viability: 1.11
NCI-H2009; first compound 0.1265 µM
  relative viability: 1.06
NCI-H2009; first compound 0.4 µM
  relative viability: 0.954
NCI-H2009; first compound 1.265 µM
  relative viability: 0.994
NCI-H2009; first compound 4 µM
  relative viability: 1.12
NCI-H2170; first compound 0.04 µM
  relative viability: 0.749
NCI-H2170; first compound 0.1265 µM
  relative viability: 0.746
NCI-H2170; first compound 0.4 µM
  relative viability: 0.666
NCI-H2170; first compound 1.265 µM
  relative viability: 0.511
NCI-H2170; first compound 4 µM
  relative viability: 0.784
NCI-H2228; first compound 0.04 µM
  relative viability: 0.117
NCI-H2228; first compound 0.1265 µM
  relative viability: 0.149
NCI-H2228; first compound 0.4 µM
  relative viability: 0.122
NCI-H2228; first compound 1.265 µM
  relative viability: 0.109
NCI-H2228; first compound 4 µM
  relative viability: 0.116
NCI-H3122; first compound 0.04 µM
  relative viability: 0.0748
NCI-H3122; first compound 0.1265 µM
  relative viability: 0.11
NCI-H3122; first compound 0.4 µM
  relative viability: 0.106
NCI-H3122; first compound 1.265 µM
  relative viability: 0.115
NCI-H3122; first compound 4 µM
  relative viability: 0.0981
NCI-H596; first compound 0.04 µM
  relative viability: 1.18
NCI-H596; first compound 0.1265 µM
  relative viability: 1.09
NCI-H596; first compound 0.4 µM
  relative viability: 1.07
NCI-H596; first compound 1.265 µM
  relative viability: 1.17
NCI-H596; first compound 4 µM
  relative viability: 1.22
NCI-H727; first compound 0.04 µM
  relative viability: 0.566
NCI-H727; first compound 0.1265 µM
  relative viability: 0.344
NCI-H727; first compound 0.4 µM
  relative viability: 0.337
NCI-H727; first compound 1.265 µM
  relative viability: 0.313
NCI-H727; first compound 4 µM
  relative viability: 0.31
PC-3 [JPC-3]; first compound 0.04 µM
  relative viability: 0.709
PC-3 [JPC-3]; first compound 0.1265 µM
  relative viability: 0.656
PC-3 [JPC-3]; first compound 0.4 µM
  relative viability: 0.724
PC-3 [JPC-3]; first compound 1.265 µM
  relative viability: 0.744
PC-3 [JPC-3]; first compound 4 µM
  relative viability: 0.743
SK-LU-1; first compound 0.04 µM
  relative viability: 0.209
SK-LU-1; first compound 0.1265 µM
  relative viability: 0.2
SK-LU-1; first compound 0.4 µM
  relative viability: 0.196
SK-LU-1; first compound 1.265 µM
  relative viability: 0.229
SK-LU-1; first compound 4 µM
  relative viability: 0.199
SK-MES-1; first compound 0.04 µM
  relative viability: 0.843
SK-MES-1; first compound 0.1265 µM
  relative viability: 0.82
SK-MES-1; first compound 0.4 µM
  relative viability: 0.823
SK-MES-1; first compound 1.265 µM
  relative viability: 0.782
SK-MES-1; first compound 4 µM
  relative viability: 0.689
SW 1573; first compound 0.04 µM
  relative viability: 0.261
SW 1573; first compound 0.1265 µM
  relative viability: 0.213
SW 1573; first compound 0.4 µM
  relative viability: 0.194
SW 1573; first compound 1.265 µM
  relative viability: 0.205
SW 1573; first compound 4 µM
  relative viability: 0.242
SW 900; first compound 0.04 µM
  relative viability: 0.158
SW 900; first compound 0.1265 µM
  relative viability: 0.207
SW 900; first compound 0.4 µM
  relative viability: 0.185
SW 900; first compound 1.265 µM
  relative viability: 0.157
SW 900; first compound 4 µM
  relative viability: 0.186
